Experimental data taken from patent US11478011B2, “Nutritional compositions and infant formula for promoting de novo myealination” (NESTEC S.A., priority 2015, dated 2022).

tested on: brain myelination (myelin water fraction) of children up to 5 years of age; assay: Correlation analysis between infant formula nutrient composition and brain myelination (mcDESPOT MRI myelin water fraction); format: in vivo, human; conditions: formula-fed children up to 5 years; brain regions listed in the block; FIG. 1b-1p
Method: MRI (Magnetic Resonance Imaging): MRI brain scans of infants and children between 0 and 5 years were acquired using a white matter imaging technique. This technique provides a quantitative measure, the Myelin Water Fraction (MWF), which is a surrogate marker of myelin content in the brain. When mapped as a function of time across early childhood, myelination trajectories can be generated.
Infant formula composition: six infant formulas fed to infants participating in a study were analyzed for their composition/level of myelin-relevant nutrients.
Infants included in this study were drawn from a larger longitudinal study of normal brain and behavioral development: the Brown University Assessment of Myelination and Behavior Across Maturation (BAMBAM). To focus on neurotypical development, children with known potential risk factors for learning, neurologic, or psychiatric disorders were specifically excluded during recruitment and enrollment. Thus, children with in utero alcohol or illicit substance exposure, premature (<37 weeks gestation) or multiple birth, fetal ultrasound abnormalities, complicated pregnancy (e.g., preeclampsia), APGAR scores <8, NICU admission, neurological disorder (e.g., head injury, epilepsy), psychiatric or developmental disorders in the infant, parents or siblings (including maternal depression requiring medication) were excluded. Ongoing screenings, such as the MCAT for autism, or CBCL for behavioral problems, were further used to remove enrolled children with clinically concerning behaviors or overt medical conditions (such as autism spectrum disorders).
A combination of retrospective and prospective data were acquired from parents via detailed medical histories and parental interview on the type of infant formula used, percentage of breastfeeding to formula feeding, and length of exclusive breastfeeding. This information was updated at each study visit, which occurred approximately every 6 months for children under 2 years, and yearly for older children. Using this information, children were categorized into one of 2 groups: #1. Exclusively formula-fed; and #2. Exclusively breastfed for at least 90 days (3 months). Children who were fed a combination of breastmilk and formula within 3 months were excluded from our analysis. Infants within the exclusively formula-fed group were further sub-divided based on parental reports of the main infant formula used throughout the first 3 months. Main formula was defined as that given 90% of the time or more (in the case were parents used an alternate brand during vacation, for example).
Using these criteria, 94 exclusively formula-fed infants and young children were selected into group #1. These included 13 children who received formula #2; 28 who received formula #5; 8 who received formula #3; 39 who received formula #4; 5 who received formula #1 and 1 who received formula #6. A sample of 52 exclusively breast-fed infants were also selected and matched to the over formula-fed group with regards to mean age, gestation duration, birth weight, male:female ratio, ethnicity ratio, maternal education, family size, and number of languages spoken in the home (in addition to English).
Each infant was scanned using the mcDESPOT (multicomponent Driven Equilibrium Single Pulse Observation of T1 and T2) white matter imaging technique Deoni et al. (Magn. Reson. Med. 2008, 60:1372-1387), which provides a quantitative measure of the myelin water fraction (MWF)—a measure of myelin content—at each point throughout the brain. All infants were scanned during natural (i.e. non-sedated) sleep using acoustically-muffled mcDESPOT imaging protocols. Total imaging times ranged from 19 minutes for the youngest toddlers to 24 minutes for the older 4 year-old children.

| Molecule | association of nutrient with myelination (myelin water fraction) over time in the brain |
| --- | --- |
| [Ca+2] [calcium] | association with myelination (myelin water fraction) was observed over time in the brain |
| Sphingomyelin | association with myelination (myelin water fraction) was observed over time in the brain |
| phosphatidylcholine | association with myelination (myelin water fraction) was observed over time in the brain |
| iron | association with myelination (myelin water fraction) was observed over time in the brain |
| phosphatidylinositol | association with myelination (myelin water fraction) was observed over time in the brain |
| [Zn] [zinc] | association with myelination (myelin water fraction) was observed over time in the brain |
| vitamin B12 | association with myelination (myelin water fraction) was observed over time in the brain |
| CCCCC/C=C\C/C=C\C/C=C\C/C=C\CCCC(=O)O [AA, arachidonic acid] | association with myelination (myelin water fraction) was observed over time in the brain |
| [Mg+2] [magnesium] | association with myelination (myelin water fraction) was observed over time in the brain |
| [P] [phosphorus] | association with myelination (myelin water fraction) was observed over time in the brain |

tested on: Neural Progenitor Cell (NPCs) from E14 mouse neocortex; assay: Monolayer culture NPC proliferation assay; format: cell-based; conditions: low dose (Dose 1: 10 nM); 3 days; control 262
Method: (§1) Media Compositions and Culture Methods 1) Neurobasal Complete Media Neurobasal media (LIFE TECHNOLOGIES CORP, #21103-049) 50× B27 supplement (LIFE TECHNOLOGIES CORP, #12587-010) 2 mM L-Glutamine (LIFE TECHNOLOGIES CORP, #25030-149) 1× Pen-Strep (LIFE TECHNOLOGIES CORP, #15140-122) 2) Neurobasal Media Complete with Growth Factors (GF) Above recipe with GF mix 1M Tris (MW 121.14, Fisher SCI BP152) Heparin (sigma H3149) BSA (Sigma A7030) DNAse, RNase, Protease free water (Fisher SCI AC327390010) EGF (GIBCO PHG0311) bFGF vial (GIBCO PHG0021) 3) Neurobasal Media No Choline (Life Technologies, Formulated Custom, No L-Glutamine, no phenol red) Note: complete and complete with GF made the same as above. Generation of Neural Progenitor Cell (NPCs) Libraries: dissociation of E14 mouse neocortex Reagents Needed: DPBS (1×)+10% Pen/Strep Neurobasal media/10% Pen/Strep/10× Hepes Procedure:
E14 pup brains were harvested and placed in ice cold DPBS (1×)+10% Pen/Strep, then they were dissected using a dissecting microscope. From each pup, one brain hemisphere was placed in 2 ml of Neurobasal media/10% P/S/10× Hepes and another brain hemisphere was placed in another tube. […]
EDU incorporation was measured using Click-iT® EdU Alexa Fluor® 555 Imaging Kit (Life technologies, #c10338). […]

| Molecule | neuronal proliferation, DAPI |
| --- | --- |
| Sphingomyelin | 280 |

tested on: Neural Progenitor Cell (NPCs) from E14 mouse neocortex; assay: Neurosphere counts in 96-well plates; format: cell-based; conditions: Low dose (Dose 1: 10 nM); grown for 2 days; control 103
Method: as §1
E14 pup brains were harvested and placed in ice cold DPBS (1×)+10% Pen/Strep, then they were dissected using a dissecting microscope. From each pup, one brain hemisphere was placed in 2 ml of Neurobasal media/10% P/S/10× Hepes and another brain hemisphere was placed in another tube.
The tissue from each tube was aseptically and manually dissociate into single cells, neurobasal complete medium was added and centrifuged at 130 G for 5 min. […]

| Molecule | number of neurospheres, Average (Mean) |
| --- | --- |
| Sphingomyelin | 94 |
